Read-outs that look alike come from different tables or passages of the source.
What was measured:
[1] = system: MLKL phosphorylation in HT29-L23 human colorectal adenocarcinoma cells; experiment: MLKL Phosphorylation High-Content Assay; assay type: cell-based; settings: 6 h, necroptosis induced with TNFα, SMAC mimetic and Z-VAD, read-out: pMLKL (IC50)
Summary of the method: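 Following fixation and staining for phospho-S358 MLKL with Hoechst nuclear counterstain, high-content imaging quantified phosphorylation in HT29-L23 cells challenged 6 h with TNFα 35 ng/mL, SMAC mimetic 700 nM and Z-VAD 140 nM. Nec-1s at 6.25 μM defined full inhibition; 4-parameter logistic fits yielded IC50 and Ymax.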

[2] = target: His-GST-TVMV-hRIPK1 (1-324) (Homo sapiens (Human), UniProt Q13546); experiment: biochemical
His-GST-TVMV-hRIPK1 (1-324), sequence (Q13546 1-324): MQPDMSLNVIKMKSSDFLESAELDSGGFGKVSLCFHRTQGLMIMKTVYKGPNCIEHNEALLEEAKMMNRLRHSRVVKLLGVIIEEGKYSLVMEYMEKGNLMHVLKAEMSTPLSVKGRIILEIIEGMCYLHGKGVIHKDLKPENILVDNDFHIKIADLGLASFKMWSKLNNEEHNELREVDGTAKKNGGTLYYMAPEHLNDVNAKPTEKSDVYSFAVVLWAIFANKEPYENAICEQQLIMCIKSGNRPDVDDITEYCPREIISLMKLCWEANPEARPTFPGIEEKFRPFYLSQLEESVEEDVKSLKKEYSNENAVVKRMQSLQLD
Description: A solution was prepared containing 0.2 nM Anti GST-Tb (Cisbio, 61GSTTLB), 90.6 nM probe and 1 nM His-GST-TVMV-hRIPK1 (1-324) in FRET Buffer (20 mM HEPES, 10 mM MgCl2, 0.015% Brij-35, 4 mM DTT, 0.05 mg/mL BSA). Using Formulatrix Tempest, the detection antibody/enzyme/probe solution (2 mL) was dispensed into wells of a 1536 plate (Black Low Binding Polystyrene 1536 Plate (Corning, 3724)) containing 10 nL of compounds of interest at appropriate concentration in DMSO. The plate was incubated at rt for 1 h. FRET was measured using the EnVision plate reader (Excitation: 340 nm, Emission: 520 nm/495 nM). Total signal (0% inhibition) was calculated from wells containing 10 nL DMSO only.

| Structure (SMILES) | IC50 ([1]; Homo sapiens) | IC50 [2] | IC50 [1] |
| --- | --- | --- | --- |
| [2H]C([2H])([2H])N(C1CCC(NC(=O)c2n[nH]c3cc(-c4cnc(OC)c(C(=O)NCc5ccccc5OC(F)(F)F)c4)ccc23)CC1)C([2H])([2H])[2H] (stereo not shown) [Example 188, N-{4-[di(deutero)methylamino]-cyclohexyl}-6-[6-methoxy-5-({[2-(trifluoromethoxy)phenyl]-methyl}carbamoyl)pyridin-3-yl]-1H-indazole-3-carboxamide] | 0.13 µM | 0.023 µM |  |
| [2H]C([2H])([2H])Oc1ncc(-c2ccc3c(C(=O)NC([2H])([2H])C([2H])([2H])[2H])n[nH]c3c2)cc1C(=O)N[C@@H]1CN(C(=O)C2CC(F)(F)C2)C[C@@H]1F [Example 192, 6-(5-{[(3R,4S)-1-(3,3-difluorocyclo-butanecarbonyl)-4-fluoropyrrolidin-3-yl]carbamoyl}-6-(deutero)methoxy-pyridin-3-yl)-N-[(1,1,2,2,2-deutero)-ethyl]-1H-indazole-3-carboxamide] | 0.43 µM | 0.11 µM |  |
| [2H]C([2H])([2H])Oc1ncc(-c2ccc3c(C(=O)NC([2H])([2H])C([2H])([2H])[2H])n[nH]c3c2)cc1C(=O)N[C@@H](C)CC(=O)OC(C)(C)C [Example 238, tert-butyl (3S)-3-{[5-(3-{[(1,1,2,2,2-deutero)ethyl]carbamoyl}-1H-indazol-6-yl)-2-(deutero)methoxy-pyridin-3-yl]formamido}butanoate] | 0.041 µM | 0.047 µM |  |
| [2H]C([2H])([2H])Oc1ncc(-c2ccc3c(C(=O)NC([2H])([2H])C([2H])([2H])[2H])n[nH]c3c2)cc1C(=O)N[C@@H](C)c1cccc(C(F)(F)F)c1 [Example 230, N-[(1,1,2,2,2-deutero)ethyl]-6-[6-(deutero)methoxy-5-{[(1S)-1-[3-(trifluoromethyl)phenyl]ethyl]car-bamoyl}pyridin-3-yl]-1H-indazole-3-carboxamide] | 0.055 µM | 0.011 µM |  |
| [2H]C([2H])([2H])Oc1ncc(-c2ccc3c(C(=O)NC4CC4)n[nH]c3c2)cc1C(=O)N[C@H](C)c1ccccc1C(F)(F)F [Example 209, N-cyclopropyl-6-[6-(deutero)-methoxy-5-{[(1R)-1-[2-(trifluoro-methyl)phenyl]ethyl]carbamoyl}-pyridin-3-yl]-1H-indazole-3-carboxamide] | 0.074 µM | 0.033 µM |  |
| [2H]C([2H])([2H])Oc1ncc(-c2ccc3c(C(=O)NC([2H])([2H])C([2H])([2H])[2H])n[nH]c3c2)cc1C(=O)N[C@H](C)c1ccccc1C(F)(F)F [Example 235, N-[(1,1,2,2,2-deutero)ethyl]-6-[6-(deutero)methoxy-5-{[(1R)-1-[2-(trifluoromethyl)phenyl]ethyl]car-bamoyl}pyridin-3-yl]-1H-indazole-3-carboxamide] | 0.048 µM | 0.034 µM |  |
| [2H]C([2H])([2H])NC(=O)c1n[nH]c2cc(-c3cnc(OC)c(-c4nnn(C(C)c5ccc(F)cc5)n4)c3)ccc12 (single isomer, unassigned) [Example 19-1, 6-(5-(2-(1-(4-fluorophenyl)ethyl)-2H-tetrazol-5-yl)-6-methoxypyridin-3-yl)-N-(methyl-d3)-1H-indazole-3-carboxamide] |  | 0.042 µM | 0.014 µM |
| [2H]C([2H])([2H])Oc1ncc(-c2ccc3c(C(=O)NC([2H])([2H])C([2H])([2H])[2H])n[nH]c3c2)cc1C(=O)N[C@H](C)c1cccc(OC(F)(F)F)c1 [Example 231, N-[(1,1,2,2,2-deutero)ethyl]-6-[6-(deutero)methoxy-5-{[(1R)-1-[3-(trifluoromethoxy)phenyl]ethyl]-carbamoyl}pyridin-3-yl]-1H-indazole-3-carboxamide] | 0.01 µM | 0.048 µM |  |
| CCC(c1ccccc1)n1nnc(-c2cc(-c3ccc4c(C(=O)NC)n[nH]c4c3)cnc2OC)n1 (single isomer, unassigned) [Example 18-1, 6-(6-methoxy-5-(2-(l-phenylpropyl)-2H-tetrazol-5-yl)pyridin-3-yl)-N-methyl-1H-indazole-3-carboxamide] |  | 0.0055 µM | 0.0073 µM |
| CNC(=O)c1n[nH]c2cc(-c3cnc(OC)c(C(=O)NC4CCCC(c5ccccc5)C4)c3)ccc12 (single isomer, unassigned) [Example 21-2, 6-{6-methoxy-5-[(3-phenylcyclohexyl)carbamoyl]pyridin-3-yl}-N-methyl-1H-indazole-3-carboxamide] |  | 0.0059 µM | 0.013 µM |
| [2H]C([2H])([2H])Oc1ncc(-c2ccc3c(C(=O)NC([2H])([2H])C([2H])([2H])[2H])n[nH]c3c2)cc1C(=O)N[C@H](C)c1cccc(C(F)(F)F)c1 [Example 229, N-[(1,1,2,2,2-deutero)ethyl]-6-[6-(deutero)methoxy-5-{[(1R)-1-[3-(trifluoromethyl)phenyl]ethyl]car-bamoyl}pyridin-3-yl]-1H-indazole-3-carboxamide] | 0.082 µM | 0.21 µM |  |
| CNC(=O)c1n[nH]c2cc(-c3cnc(OC)c(C(=O)NC4CCCC(c5ccccc5)C4)c3)ccc12 (single isomer, unassigned) [Example 21-3, 6-{6-methoxy-5-[(3-phenylcyclohexyl)carbamoyl]pyridin-3-yl}-N-methyl-1H-indazole-3-carboxamide] |  | 0.022 µM | 0.0081 µM |
| [2H]C([2H])([2H])Oc1ncc(-c2ccc3c(C(=O)NC4CC4)n[nH]c3c2)cc1C(=O)N[C@@H](C)CC(=O)OC(C)(C)C [Example 195, tert-butyl (3S)-3-({5-[3-(cyclo-propylcarbamoyl)-1H-indazol-6-yl]-2-(deutero)methoxypyridin-3-yl}formamido)butanoate] |  | 0.036 µM | 0.039 µM |
| [2H]C([2H])([2H])Oc1ncc(-c2ccc3c(C(=O)NC4CC4)n[nH]c3c2)cc1C(=O)N[C@H](C)CC(=O)OC(C)(C)C [Example 196, tert-butyl (3R)-3-({5-[3-(cyclo-propylcarbamoyl)-1H-indazol-6-yl]-2-(deutero)methoxypyridin-3-yl}formamido)butanoate] |  | 0.084 µM | 0.019 µM |
| CCC(c1ccccc1)n1nnc(-c2cc(-c3ccc4c(C(=O)NC)n[nH]c4c3)cnc2OC)n1 (single isomer, unassigned) [Example 18-2, 6-(6-methoxy-5-(2-(l-phenylpropyl)-2H-tetrazol-5-yl)pyridin-3-yl)-N-methyl-1H-indazole-3-carboxamide] |  | 0.1 µM | 0.31 µM |
| [2H]C([2H])([2H])NC(=O)c1n[nH]c2cc(-c3cnc(OC)c(-c4nnn(C(C)c5ccc(F)cc5)n4)c3)ccc12 (single isomer, unassigned) [Example 19-2, 6-(5-(2-(1-(4-fluorophenyl)ethyl)-2H-tetrazol-5-yl)-6-methoxypyridin-3-yl)-N-(methyl-d3)-1H-indazole-3-carboxamide] |  | 0.1 µM | 0.064 µM |
| [2H]C([2H])([2H])Oc1ncc(-c2ccc3c(C(=O)NC(C)C)n[nH]c3c2)cc1C(=O)NC(C)c1ccccc1OC(F)(F)F (racemic) [Example 22, (rac)-N-isopropyl-6-(6-methoxyd3-5-((1-(2-(trifluoromethoxy)phenyl)ethyl)carbamoyl)pyridin-3-yl)-1H-indazole-3-carboxamide] | 0.44 µM | 0.1 µM |  |
| [2H]C([2H])([2H])Oc1ncc(-c2ccc3c(C(=O)NC([2H])([2H])C([2H])([2H])[2H])n[nH]c3c2)cc1C(=O)NCC[C@@H](O)c1ccc(Cl)cc1 [Example 237, 6-(5-{[(3R)-3-(4-chlorophenyl)-3-hydroxypropyl]carbamoyl}-6-(deutero)methoxypyridin-3-yl)-N-[(1,1,2,2,2-deutero)ethyl]-1H-indazole-3-carboxamide] | 0.014 µM | 0.0063 µM |  |
| [2H]C([2H])([2H])Oc1ncc(-c2ccc3c(C(=O)NC([2H])([2H])C([2H])([2H])[2H])n[nH]c3c2)cc1C(=O)N[C@@H](C)c1cc(C(F)(F)F)ccc1F [Example 226, N-[(1,1,2,2,2-deutero)ethyl]-6-(5-{[(1S)-1-[2-fluoro-5-(trifluoro-methyl)phenyl]ethyl]carbamoyl}-6-(deutero)methoxypyridin-3-yl)1H-indazole-3-carboxamide] | 0.041 µM | 0.057 µM |  |
| CNC(=O)c1n[nH]c2cc(-c3cnc(OC)c(C(=O)NC4CCCC(c5ccccc5)C4)c3)ccc12 (single isomer, unassigned) [Example 21-4, 6-{6-methoxy-5-[(3-phenylcyclohexyl)carbamoyl]pyridin-3-yl}-N-methyl-1H-indazole-3-carboxamide] |  | 0.002 µM | 0.002 µM |
